Source: patent US20070021360A1, “Compositions, formulations and kit with anti-sense oligonucleotide and anti-inflammatory steroid and/or obiquinone for treatment of respiratory and lung disesase” (priority 2001, published 2007)

Tests used:
adenosine A1 receptor [1] = target: T1, adenosine A1 receptor (Oryctolagus cuniculus, UniProt P34970); settings: mismatch controls; Nyce & Metzger (1997); cited from earlier work
T1 construct: Airway smooth muscle tissue was dissected from each rabbit and a membrane fraction prepared; from tissue; host or cells: rabbit airway smooth muscle, crude plasma membranes
T1 sequence (P34970 1-328): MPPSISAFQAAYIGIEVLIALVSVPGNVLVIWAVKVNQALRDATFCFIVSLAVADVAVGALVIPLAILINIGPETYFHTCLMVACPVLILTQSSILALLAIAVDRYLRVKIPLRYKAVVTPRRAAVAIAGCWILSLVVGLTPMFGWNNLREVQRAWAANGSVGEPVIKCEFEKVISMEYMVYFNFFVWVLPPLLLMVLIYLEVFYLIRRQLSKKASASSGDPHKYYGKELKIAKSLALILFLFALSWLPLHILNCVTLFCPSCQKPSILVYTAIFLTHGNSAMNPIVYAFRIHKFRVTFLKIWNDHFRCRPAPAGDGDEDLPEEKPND

adenosine A1 receptor [2] = experiment: Adenosine-induced bronchoconstriction (PC50 Adenosine) in allergic rabbits; format: in vivo; settings: allergic rabbits; for effect on PC50 Adenosine value: cross-over experiment, 20 mg total aerosolized oligo
Experimental: A fortuitous hoology between the rabbit and human DNA sequences within the adenosine A1 gene overlapping the initiation codon permitted the use of the phosphorothioate anti-sense oligonucleotides initially designed for use against the human adenosine A1 receptor in a rabbit model. Neonatal New Zealand white Pasteurella-free rabbits were immunized intraperitoneally within 24 hours of birth with 312 antigen units/ml house dust mite (D. farinae) extract (Berkeley Biologicals, Berkeley, Calif.), mixed with 10% kaolin. Immunizations were repeated weekly for the first month and then biweekly for the next 2 months. At 3-4 months of age, eight sensitized rabbits were anesthetized and relaxed with a mixture of ketamine hydrochloride (44 mg/kg) and acepromazine maleate (0.4 mg/kg) administered intramuscularly. The rabbits were then laid supine in a comfortable position on a small molded, padded animal board and intubated with a 4.0-mm intratracheal tube (Mallinkrodt, Inc., Glens Falls, N.Y.). A polyethylene catheter of external diameter 2.4 mm with an attached latex balloon was passed into the esophagus and maintained at the same distance (approximately 16 cm) from the mouth throughout the experiments. The intratracheal tube was attached to a heated Fleisch pneumotachograph (size 00; DOM Medical, Richmond, Va.), and flow was measured using a Validyne differential pressure transducer (Model DP-45161927; Validyne Engineering Corp., Northridge, Calif.) driven by a Gould carrier amplifier (Model 11-4113; Gould Electronic, Cleveland, Ohio). The esophageal balloon was attached to one side of the differential pressure transducer, and the outflow of the intratracheal tube was connected to the opposite side of the pressure transducer to allow recording of transpulmonary pressure. Flow was integrated to give a continuous tidal volume, and measurements of total lung resistance (RL) and dynamic compliance (Cdyn) were calculated at isovolumetric and flow zero points, respectively, using an automated respiratory analyzer (Model 6; Buxco, Sharon, Conn.). Animals were randomized and on Day 1 pretreatment values for PC50 were obtained for aerosolized adenosine. Anti-sense (HAdA1AS) or mismatched control (HAdA1MM) oligonucleotides were dissolved in sterile physiological saline at a concentration of 5000 μg (5 mg) per 1.0 ml. […] Aerosols of either saline, adenosine, or anti-sense or mismatch oligonucleotides were generated by an ultrasonic nebulizer (DeVilbiss, Somerset, Pa.), producing aerosol droplets 80% of which were smaller than 5:m in diameter. In the first arm of the experiment, four randomly selected allergic rabbits were administered anti-sense oligonucleotide and four the mismatched control oligonucleotide. On the morning of the third day, PC50 values (the concentration of aerosolized adenosine in mg/ml required to reduce the dynamic compliance of the bronchial airway 50% from the baseline value) were obtained and compared to PC50 values obtained for these animals prior to exposure to oligonucleotide. Following a 1 week interval, animals were crossed over, with those previously administered mismatch control oligonucleotide now administered anti-sense oligonucleotide, and those previously treated with anti-sense oligonucleotide now administered mismatch control oligonucleotide. Treatment methods and measurements were identical to those employed in the first arm of the experiment. […] For the purpose of calculation, PC50 values for these animals were set at 20 mg/ml. The values given therefore represent a minimum figure for anti-sense effectiveness. Actual effectiveness was higher.
Aerosols of either adenosine (0-20 mglnml), or anti-sense or one of two mismatch oligonucleotides (5 mg/ml) were separately prepared with an ultrasonic nebulizer (Model 646, DeVilbiss, Somerset, Pa.), which produced aerosol droplets, 80% of which were smaller than 5:m in diameter. […]

adenosine A3 receptor = experiment: Inflammatory cells in bronchial lavage fluid after dust mite allergen; format: in vivo, rabbit; settings: allergic rabbits, 20 mg oligo, lavage 3 hours later
Experimental: The number of inflammatory cells was determined in their bronchial lavage fluid 3 hours later by counting at least 100 viable cells per lavage. The effect of anti-sense oligos III (SEQ ID NO: 9377) and IV (SEQ ID NO: 9378) upon granulocytes, and upon total cells in bronchial lavage were assessed following exposure to dust mite allergen. […] As is known in the art, granulocytes, especially eosinophils, are the primary inflammatory cells of asthma and the administration of anti-sense oligos III (SEQ ID NO: 9377) and IV (SEQ ID NO: 9378) reduced their numbers by 40% and 66%, respectively. […] This is also an important indicator of anti-inflammatory activity by the present anti-adenosine A3 agents of the invention. Inflammation is known to underlie bronchial hyperresponsiveness and allergen-induced bronchoconstriction in asthma. Both anti-sense oligonucleotides III (SEQ ID NO: 9377) and IV (SEQ ED NO: 9378), which are targeted to the adenosine A3 receptor, are representative of an important new class of anti-inflammatory agents which may be designed to specifically target the lung receptors of each species.

allergic rabbits [3] = experiment: Allergen-induced bronchial hyperresponsiveness (PC50 Histamine) in allergic rabbits; format: in vivo, rabbit; settings: compared to mismatched control; from PC50 Histamine value; p<0.05
Experimental: Each allergic rabbit was administered histamine by aerosol to determine their baseline hyperresponsiveness. Aerosols of either saline or hitamine were generated using a DeVilbiss nebulizer (DeVilbiss, Somerset, Pa.) for 30 seconds and then for 2 minutes at each dose employed. The ultrasonic nebulizer produced aerosol droplets of which 80% were <5 micron in diameter. The histamine aerosol was administered in increasing concentrations (0.156 to 80 mg/ml) and measurements of pulmonary function were made after each dose. The […] was then determined by calculating the concentration of histamine (mg/ml) required to reduce the Cdyn 50% from baseline (PC50 Histamine)

allergic rabbits [4] = experiment: Allergen-induced airway obstruction in allergic rabbits; format: in vivo, rabbit; settings: compared with mismatched control; from area under the plotted curve; p<0.05
Intracellular Adenosine = experiment: In vivo effect on adenosine levels in rat tissues (HPLC); parameters: species or system Fischer 344 rats
Experimental: Folinic acid (50 mg/kg) was administered intraperitoneally once daily for fourteen days. […] Hearts were removed from animals and flash frozen in liquid nitrogen with 10 seconds of death. Liver and lungs were removed en bloc and flash frozen with 30 seconds of death. Brain tissue was subsequently dissected.

HT-29 SF cells [5] = experiment: Reversal of DHEA effect on cell cycle; format: cell-based, human; settings: 25 FM DHEA; supplement in medium; 48 and 72 hours
HT-29 SF cells [6] = experiment: Reversal of DHEA-mediated growth inhibition; format: cell-based, human; settings: 25 μM DHEA; supplement in medium; 48 hours
[7] = target: B2 bradykinin receptor (rabbit airway smooth muscle membranes) (rabbit) (UniProt Q28642); experiment: radioligand binding, airway smooth muscle membranes; saline control rabbits
[8] = target: B2 bradykinin receptor (rabbit airway smooth muscle membranes) (rabbit) (UniProt Q28642); experiment: radioligand binding, airway smooth muscle membranes; rabbits treated with A1 receptor anti-sense oligo, 0.2 mg
[9] = target: B2 bradykinin receptor (rabbit airway smooth muscle membranes) (rabbit) (UniProt Q28642); experiment: radioligand binding, airway smooth muscle membranes; rabbits treated with B2A bradykinin receptor anti-sense oligo, 2 mg
[10] = target: B2 bradykinin receptor (rabbit airway smooth muscle membranes) (rabbit) (UniProt Q28642); experiment: radioligand binding, airway smooth muscle membranes; rabbits treated with A1MM1 mismatch control, 2 mg
[11] = target: B2 bradykinin receptor (rabbit airway smooth muscle membranes) (rabbit) (UniProt Q28642); experiment: radioligand binding, airway smooth muscle membranes; rabbits treated with B2MM mismatch control, 0.2 mg
[12] = target: B2 bradykinin receptor (rabbit airway smooth muscle membranes) (rabbit) (UniProt Q28642); experiment: radioligand binding, airway smooth muscle membranes; rabbits treated with B2MM mismatch control, 2 mg
[13] = target: B2 bradykinin receptor (rabbit airway smooth muscle membranes) (rabbit) (UniProt Q28642); experiment: radioligand binding, airway smooth muscle membranes; rabbits treated with A1 receptor anti-sense oligo, 20 mg
[14] = target: B2 bradykinin receptor (rabbit airway smooth muscle membranes) (rabbit) (UniProt Q28642); experiment: radioligand binding, airway smooth muscle membranes; rabbits treated with A1MM1 mismatch control, 20 mg
[15] = target: B2 bradykinin receptor (rabbit airway smooth muscle membranes) (rabbit) (UniProt Q28642); experiment: radioligand binding, airway smooth muscle membranes; rabbits treated with B2A bradykinin receptor anti-sense oligo, 0.2 mg
[16] = target: B2 bradykinin receptor (rabbit airway smooth muscle membranes) (rabbit) (UniProt Q28642); experiment: radioligand binding, airway smooth muscle membranes; rabbits treated with B2MM mismatch control, 20 mg
[17] = target: B2 bradykinin receptor (rabbit airway smooth muscle membranes) (rabbit) (UniProt Q28642); experiment: radioligand binding, airway smooth muscle membranes; rabbits treated with B2A bradykinin receptor anti-sense oligo, 20 mg
[18] = target: B2 bradykinin receptor (rabbit airway smooth muscle membranes) (rabbit) (UniProt Q28642); experiment: radioligand binding, airway smooth muscle membranes; rabbits treated with A1 receptor anti-sense oligo, 2 mg
[19] = once daily 14 days, DHEA 300 mg/kg, methyltestosterone 40 mg/kg (120 mg/kg in M + F.A.), folinic acid 50 mg/kg, mean ± SEM
[20] = daily for two weeks, DHEA or high dose methyltestosterone
[21] = methyltestosterone 120 mg/kg, mean ± SEM

B2 bradykinin receptor (rabbit airway smooth muscle membranes) (rabbit), sequence (Q28642 whole entry): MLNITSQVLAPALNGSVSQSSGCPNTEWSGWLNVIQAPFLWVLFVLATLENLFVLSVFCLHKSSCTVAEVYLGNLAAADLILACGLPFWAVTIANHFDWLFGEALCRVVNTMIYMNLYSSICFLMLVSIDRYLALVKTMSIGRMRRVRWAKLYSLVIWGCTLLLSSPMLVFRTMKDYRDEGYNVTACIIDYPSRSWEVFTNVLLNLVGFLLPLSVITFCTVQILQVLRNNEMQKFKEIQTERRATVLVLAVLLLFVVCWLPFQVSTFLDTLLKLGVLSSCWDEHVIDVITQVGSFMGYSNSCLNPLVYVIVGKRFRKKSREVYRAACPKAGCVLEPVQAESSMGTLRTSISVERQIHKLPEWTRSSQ

5′-GATGGAGGCGGGCATGGCGGG-3 [Oligo A1MM3, reference compound]
effect upon any of the targeted receptors (A1, A2 or B2) (adenosine A1 receptor [1]): absolutely no effect | effect on PC50 Adenosine value (adenosine A1 receptor [2]): no effect

5′-GGC CCA GGG CCA GCC-31 (antisense GGCCCAGGGCCAGCC; all phosphorothioate, sugars by position and methylation of C not given here) [Oligo IV, targets adenosine A3 receptor mRNA +386 to +401]
reduction of granulocyte numbers in bronchial lavage (adenosine A3 receptor): 66% | reduction of total number of cells in bronchial lavage fluid (adenosine A3 receptor): 40%

5′-GTAGGTGGCGGGCAAGGCGGG-3′ (antisense GTAGGTGGCGGGCAAGGCGGG; phosphorothioate, further chemistry not given here) [Oligo A1MM2, mismatch control for anti-sense oligo I, reference compound]
effect upon any of the targeted receptors (A1, A2 or B2) (adenosine A1 receptor [1]): absolutely no effect | inhibition of allergen-induced BHR (allergic rabbits [3]): complete lack of effect | PC50 Adenosine (adenosine A1 receptor [2]; Total Dose 0.2 mg): 2.51 ± 0.46 mg Adenosine | PC50 Adenosine (adenosine A1 receptor [2]; Total Dose 2.0 mg): 3.13 ± 0.71 mg Adenosine | PC50 Adenosine (adenosine A1 receptor [2]; Total Dose 20 mg): 3.25 ± 0.34 mg Adenosine | effect on PC50 Adenosine value (adenosine A1 receptor [2]): no effect | inhibition of allergen-induced airway obstruction (allergic rabbits [4]): complete lack of effect

Nc1nc(=O)c2c([nH]1)NCC(CNc1ccc(C(=O)N[C@@H](CCC(=O)O)C(=O)O)cc1)N2C=O (mixture of isomers) [Folinic Acid (F.A.), Folinic acid]
effect on adenosine levels when administered alone (Intracellular Adenosine; folinic acid 50 mg/kg intraperitoneally): increase in adenosine levels for all organs studied | effect of co-administration on steroid-mediated adenosine depletion (Intracellular Adenosine; folinic acid co-administered with DHEA or methyltestosterone): completely abrogated steroid-mediated adenosine depletion | Intracellular Adenosine, Brain (Intracellular Adenosine; [19]): 0.72 ± 0.09 nmol/mg protein | Intracellular Adenosine, Heart (Intracellular Adenosine; [19]): 12.4 ± 2.1 nmol/mg protein

CC(C)CCC[C@@H](C)[C@H]1CC[C@H]2[C@@H]3CC=C4C[C@@H](O)CC[C@]4(C)[C@H]3CC[C@]12C [CH, cholesterol]
prevention of DHEA-induced S phase depletion (HT-29 SF cells [5]): very little effect at 48 hours and no effect at 72 hours | reversal of DHEA-induced growth inhibition (HT-29 SF cells [6]): no such effect

C[C@@](O)(CCO)CC(=O)O [MVA, mevalonic acid]
prevention of DHEA-induced S phase depletion (HT-29 SF cells [5]): partially prevented this effect in the initial 48 hours but not after 72 hours | reversal of DHEA-induced growth inhibition (HT-29 SF cells [6]): partially overcome

C[C@]12CCC(=O)C=C1CC[C@@H]1[C@@H]2CC[C@@]2(C)[C@H]1CC[C@]2(C)O [Methyltestosterone, methyltestosterone]
depletion of adenosine in brain (Intracellular Adenosine; [20]): 34% | depletion of adenosine in heart (Intracellular Adenosine; [20]): 22% | Intracellular Adenosine, Brain (Intracellular Adenosine; in vivo): 0.42 ± 0.06 nmol/mg protein | Intracellular Adenosine, Heart (Intracellular Adenosine; in vivo): 8.3 ± 1.0 nmol/mg protein | Intracellular Adenosine, Brain (Intracellular Adenosine; [21]): 0.32 ± 0.03 nmol/mg protein | Intracellular Adenosine, Heart (Intracellular Adenosine; [21]): 6.0 ± 0.4 nmol/mg protein

CC(C)=CCC/C(C)=C/CC/C(C)=C/CC/C=C(\C)CC/C=C(\C)CCC=C(C)C [SQ, squalene]
reversal of DHEA-induced growth inhibition (HT-29 SF cells [6]): no such effect

[3H]NPC 17731 (peptide)
Kd [7]: 0.39 nM | Kd [8]: 0.34 nM | Kd [9]: 0.34 nM | Kd [10]: 0.38 nM | Kd [11]: 0.36 nM | Kd [12]: 0.37 nM | Kd [13]: 0.39 nM | Kd [14]: 0.35 nM | Kd [15]: 0.35 nM | Kd [16]: 0.41 nM | Kd [17]: 0.38 nM | Kd [18]: 0.41 nM
